The molecules below were run on Human primary melanocytes (assay: Melanin synthesis on melanocyte cells in vitro (melanin content assay)). Details: 72 hrs treatment with actives in MGM media at the stated wt %; absorbance 405 nm.
Type: cell-based
Procedure: Experiments were carried out on melanocyte cells using the actives as shown in Table-3 using the procedure given below; • 1. Human primary melanocytes were seeded at a density of 5×10^4 per well into a 24 well plate with fresh melanocyte growth media (MGM). • 2. Post 24 hrs seeding, cells were treated with actives in fresh MGM media and incubated for 72 hrs at 5% CO2/37° C. incubator. • 3. After 72 h of incubation, melanin estimation was done. Melanin content estimation: Cell culture spent media was removed and cells were washed once with 200 μl of 1×PBS. […] Then 100 μl of this lysate was transferred to a fresh 384 well plate and absorbance was measured spectrophotometric at 405 nm with a micro plate reader.

Structure (SMILES) | Melanin synthesis (% of control)
CC(O)CN(CCN(CC(C)O)CC(C)O)CC(C)O (stereo not drawn) [D, tetrahydroxypropyl ethylenediamine] | 91 % of control
NC(=O)c1cccnc1 [E, niacinamide] | 97 % of control
CCCCCCC(O)CCCCCCCCCCC(=O)O (stereo not drawn) [F, 12-hydroxystearic acid] | 98 % of control
